Experimental data from patent US20150368209A1, “4-Pyrimidinylamino-benzenesulfonamide derivatives and their use for the inhibition of polo-like kinase 1 (PLK1) for the treatment of cancer and their use for the treatment of bacterial infections” (VICHEM CHEMIE KUTATÓ KFT., priority 2013, published 2015).
Converted amounts (≈) assume the structure as drawn.

Assays:
[1] = biological target: T1, human PLK1 kinase domain (Homo sapiens, UniProt P53350); assay: In vitro PLK1 assay (IMAP fluorescence polarization kinase assay); type: biochemical; conditions: for inhibition at 10 µM: at 10 uM compound; for IC50: 30 nM PLK1 kinase domain, 16 μM ATP (=Kmapp), 90 min at room temperature
T1 construct: Each reaction consisted of 30 nM enzyme PLK1 kinase domain
Procedure: The activity of the compounds described in the present invention was determined using a commercially available IMAP Screening Express Assay Kit (Molecular devices).
This method measures the change in the fluorescent polarization of a fluorescently-labeled peptide due to the effect of human PLK1 kinase domain on it. PLK1 kinase assays were performed in low protein binding 384-well plates (Corning 3676). Test compounds were diluted in 100% DMSO to 5 mM stock concentration, the further dilutions were made in H2O or 100% DMSO to desirable concentrations.
Each reaction consisted of 30 nM enzyme PLK1 kinase domain, 400 nM 5TAMRA-RGSFNDTLDFD-NH2 (Genecust Europe), 16 μM ATP (=Kmapp, Sigma-Aldrich) and kinase buffer: 20 mM HEPES pH 7.5 (Sigma-Aldrich), 1 mM DTT (Sigma-Aldrich), 10 mM MgCl2 (Sigma-Aldrich), 0.01% Triton X-100 (Sigma-Aldrich).
For each reaction, 4 or 6 μl containing 5TAMRA-RGSFNDTLDFD-NH2, ATP and kinase buffer were combined with 2 μl diluted compound in H2O or 0.04 μl compound in 100% DMSO. The kinase reaction was started by the addition of 2 μl diluted enzyme. The reaction was allowed to run for 90 minutes at room temperature. The reaction was stopped by adding 15 μl IMAP beads (1:1200 beads in progressive (40% buffer A, 60% buffer B) 1× buffer). After an additional 60 minutes, fluorescent polarization (Ex: 550-10 nm, Em: 590-10 nm, Dich: 561 nm) was measured using Analyst GT multimode reader (Molecular Devices).

[2] = system: HepG2
[3] = system: M. tuberculosis H37Rv; assay: Resazurin reduction microtiter assay (REMA), growth inhibition and MIC determination; type: cell-based; conditions: Mycobacterium tuberculosis, 168 h, 7 days at 37° C.; for inhibition at 20 µM: at 20 uM compound, read-out: H37Rv inh % at 20 uM; for MIC: two-fold serial dilution from 100 to 0.16 μM, read-out: H37Rv MIC90

T1 sequence (P53350 53-305 limits assumed): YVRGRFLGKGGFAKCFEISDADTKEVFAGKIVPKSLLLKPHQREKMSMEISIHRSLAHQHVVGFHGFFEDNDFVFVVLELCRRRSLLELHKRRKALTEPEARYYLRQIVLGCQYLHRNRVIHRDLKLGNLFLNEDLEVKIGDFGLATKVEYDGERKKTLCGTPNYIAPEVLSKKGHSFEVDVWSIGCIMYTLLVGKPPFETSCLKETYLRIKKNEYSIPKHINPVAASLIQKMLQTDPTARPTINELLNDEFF

Structure (SMILES) | inhibition at 10 µM [1] | HepG2 TD50 [2] | inhibition at 20 µM [3] | MIC [3] | IC50 [1]
COc1ccc(C(C)(C)C)cc1-c1cc(Nc2ccc(S(=O)(=O)Nc3onc(C)c3C)cc2)ncn1 [Example 6, 4-[6-(5-tert-Butyl-2-methoxy-phenyl)-pyrimidin-4-ylamino]-N-(3,4-dimethyl-isoxazol-5-yl)-benzenesulfonamide] | 26.1% | 19.6 | 94.1% | 19.6 µM (≈ 9.95 µg/mL) | 
COc1ccc(C)cc1-c1cc(Nc2ccc(S(=O)(=O)Nc3onc(C)c3C)cc2)ncn1 [Example 9, N-(3,4-Dimethyl-isoxazol-5-yl)-4-[6-(2-methoxy-5-methyl-phenyl)-pyrimidin-4-ylamino]-benzenesulfonamide] | 67.6% | 19.6 | 101% | 19.3 µM (≈ 8.98 µg/mL) | 807 nM
COc1cccc(F)c1-c1cc(Nc2ccc(S(=O)(=O)Nc3onc(C)c3C)cc2)ncn1 [Example 12, N-(3,4-Dimethyl-isoxazol-5-yl)-4-[6-(2-fluoro-6-methoxy-phenyl)-pyrimidin-4-ylamino]-benzenesulfonamide] | 83.3% | 19.6 | 102% | 1.13 µM (≈ 0.531 µg/mL) | 1460 nM
COc1cccc(Cl)c1-c1cc(Nc2ccc(S(=O)(=O)Nc3onc(C)c3C)cc2)ncn1 [Example 15, 4-[6-(2-Chloro-6-methoxy-phenyl)-pyrimidin-4-ylamino]-N-(3,4-dimethyl-isoxazol-5-yl)-benzenesulfonamide] | 96.4% | 0.0458 | 102% | 0.292 µM (≈ 0.142 µg/mL) | 
Cc1noc(NS(=O)(=O)c2ccc(Nc3cc(-c4cc(Cl)ccc4Cl)ncn3)cc2)c1C [Example 16, 4-[6-(2,5-Dichloro-phenyl)-pyrimidin-4-ylamino]-N-(3,4-dimethyl-isoxazol-5-yl)-benzenesulfonamide] | 7.9% | 2.37 | 100% | 11.8 µM (≈ 5.76 µg/mL) | 604 nM
COc1cccc(OC)c1-c1cc(Nc2ccc(S(=O)(=O)Nc3onc(C)c3C)cc2)ncn1 [Example 22, 4-[6-(2,6-Dimethoxy-phenyl)-pyrimidin-4-ylamino]-N-(3,4-dimethyl-isoxazol-5-yl)-benzenesulfonamide] | 10.1% | 9.819 | 102% | 7.24 µM (≈ 3.49 µg/mL) | 
Cc1noc(NS(=O)(=O)c2ccc(Nc3cc(-c4ccccc4C(N)=O)ncn3)cc2)c1C [Example 26, 2-{6-[4-(3,4-Dimethyl-isoxazol-5-ylsulfamoyl)-phenylamino]-pyrimidin-4-yl}-benzamide] | 0% |  | -34.2% |  | 
CC(=O)Nc1ccc(-c2cc(Nc3ccc(S(=O)(=O)Nc4onc(C)c4C)cc3)ncn2)cc1 [Example 27, N-(4-{6-[4-(3,4-Dimethyl-isoxazol-5-ylsulfamoyl)-phenylamino]-pyrimidin-4-yl}-phenyl)-acetamide] | 68.7% |  | -11.9% |  | 372 nM
COc1cc(Cl)ccc1-c1cc(Nc2ccc(S(=O)(=O)Nc3onc(C)c3C)cc2)ncn1 [Example 28, 4-[6-(4-Chloro-2-methoxy-phenyl)-pyrimidin-4-ylamino]-N-(3,4-dimethyl-isoxazol-5-yl)-benzenesulfonamide] | 61.9% |  | 0.6% |  | 59 nM
COc1ccc(COc2ccccc2-c2cc(Nc3ccc(S(=O)(=O)Nc4onc(C)c4C)cc3)ncn2)cc1 [Example 29, N-(3,4-Dimethyl-isoxazol-5-yl)-4-{6-[2-(4-methoxy-benzyloxy)-phenyl]-pyrimidin-4-ylamino}-benzenesulfonamide] | 36% |  | -14.2% |  | 
COc1ccccc1-c1cc(Nc2ccc(S(=O)(=O)Nc3nnc(C)s3)cc2)ncn1 [Example 32, 4-[6-(2-Methoxy-phenyl)-pyrimidin-4-ylamino]-N-(5-methyl-[1,3,4]thiadiazol-2-yl)-benzenesulfonamide] | 63.5% |  | 100% | 18.5 µM (≈ 8.41 µg/mL) | 917 nM
COc1ccccc1-c1cc(Nc2ccc(S(=O)(=O)Nc3cc(C)on3)cc2)ncn1 [Example 33, 4-[6-(2-Methoxy-phenyl)-pyrimidin-4-ylamino]-N-(5-methyl-isoxazol-3-yl)-benzenesulfonamide] | 57.8% |  | -30.6% |  | 
Cc1noc(NS(=O)(=O)c2ccc(Nc3cc(-c4cccc(C#N)c4)ncn3)cc2)c1C [Example 34, 4-[6-(3-Cyano-phenyl)-pyrimidin-4-ylamino]-N-(3,4-dimethyl-isoxazol-5-yl)-benzenesulfonamide] | 58.5% |  | -4.3% |  | 
COc1cccc(-c2cc(Nc3ccc(S(=O)(=O)Nc4onc(C)c4C)cc3)ncn2)c1 [Example 35, N-(3,4-Dimethyl-isoxazol-5-yl)-4-[6-(3-methoxy-phenyl)-pyrimidin-4-ylamino]-benzenesulfonamide] | 77.1% |  | -8.1% |  | 2490 nM
COc1cccc(-c2cc(Nc3ccc(S(=O)(=O)Nc4onc(C)c4C)cc3)ncn2)c1OC [Example 36, 4-[6-(2,3-Dimethoxy-phenyl)-pyrimidin-4-ylamino]-N-(3,4-dimethyl-isoxazol-5-yl)-benzenesulfonamide] | 77.3% |  | -9.8% |  | 2180 nM
COc1ccc(-c2cc(Nc3ccc(S(=O)(=O)Nc4onc(C)c4C)cc3)ncn2)c(OC)c1 [Example 37, 4-[6-(2,4-Dimethoxy-phenyl)-pyrimidin-4-ylamino]-N-(3,4-dimethyl-isoxazol-5-yl)-benzenesulfonamide] | 70% | 16.1 | 101% | 13.7 µM (≈ 6.57 µg/mL) | 947 nM
COc1ccc(F)cc1-c1cc(Nc2ccc(S(=O)(=O)Nc3onc(C)c3C)cc2)ncn1 [Example 38, N-(3,4-Dimethyl-isoxazol-5-yl)-4-[6-(5-fluoro-2-methoxy-phenyl)-pyrimidin-4-ylamino]-benzenesulfonamide] | 80.8% |  | 96.4% | 19.6 µM (≈ 9.2 µg/mL) | 3190 nM
Cc1noc(NS(=O)(=O)c2ccc(Nc3cc(-c4ccccc4)ncn3)cc2)c1C [Example 39, N-(3,4-Dimethyl-isoxazol-5-yl)-4-(6-phenyl-pyrimidin-4-ylamino)-benzenesulfonamide] | 57.9% |  | -22.2% |  | 
Cc1noc(NS(=O)(=O)c2ccc(Nc3cc(-c4ccccc4F)ncn3)cc2)c1C [Example 40, N-(3,4-Dimethyl-isoxazol-5-yl)-4-[6-(2-fluoro-phenyl)-pyrimidin-4-ylamino]-benzenesulfonamide] | 88.6% |  | -8.5% |  | 2430 nM
COc1ccccc1-c1cc(Nc2ccc(S(=O)(=O)NC(=O)C(C)C(C)=O)cc2)ncn1 (stereo not drawn) [Example 41, 4-[6-(2-Methoxy-phenyl)-pyrimidin-4-ylamino]-N-(2-methyl-3-oxo-butyryl)-benzenesulfonamide] | 59% |  | -4.8% |  | 
Cc1noc(NS(=O)(=O)c2ccc(Nc3cc(-c4cccc(C(F)(F)F)c4)ncn3)cc2)c1C [Example 42, N-(3,4-Dimethyl-isoxazol-5-yl)-4-[6-(3-trifluoromethyl-phenyl)-pyrimidin-4-ylamino]-benzenesulfonamide] | 17% |  | 24.2% |  | 
Cc1noc(NS(=O)(=O)c2ccc(Nc3cc(-c4cccc5ccccc45)ncn3)cc2)c1C [Example 43, N-(3,4-Dimethyl-isoxazol-5-yl)-4-(6-naphthalen-1-yl-pyrimidin-4-ylamino)-benzenesulfonamide] | 58.8% |  | -9.2% |  | 13800 nM
